Measured values: ChEMBL document CHEMBL1201862, “PubChem BioAssay data set” (2004)
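Assay format: 96-well plates, 48-hour exposure. GI50 = concentration required for 50% inhibition of growth.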 Activity calls are given as the source filed them. Cut-off read from the data, not from the text of the source: active = GI50 up to about 1.1 µM and inactive = higher.

Legend:
Experiment in all cases: NCI-60 cell line screen, 48 h
DLD-1 = tested on: DLD-1
DMS-114 = tested on: DMS-114
DMS-273 = tested on: DMS-273
HOP-18 = tested on: HOP-18
M19-MEL = tested on: M19-MEL
RXF 631 = tested on: RXF 631
SNB-78 = tested on: SNB-78
XF498 = tested on: XF498

Measured: GI50

CCCCCC/C=C/CCCCCCCc1cccc(O)c1C(=O)O
inactive: DLD-1 43.6 µM | DMS-114 > 100 µM | DMS-273 34.9 µM | HOP-18 48.4 µM | M19-MEL > 100 µM | RXF 631 > 100 µM | SNB-78 > 100 µM | XF498 > 100 µM

CCSC1=C(C)N(/C=N/C(C)(C)C)CC1
inactive: DLD-1 > 100 µM | DMS-114 > 100 µM | DMS-273 > 100 µM | HOP-18 > 100 µM | M19-MEL > 100 µM | RXF 631 > 100 µM | SNB-78 > 100 µM | XF498 > 100 µM

O=C(COC(=O)c1cccc2c(=O)c3ccccc3[nH]c12)Nc1ccc(C(=O)O)cc1
inactive: DLD-1 > 100 µM | DMS-114 61.8 µM | HOP-18 > 100 µM | M19-MEL > 100 µM | RXF 631 > 100 µM | SNB-78 59.3 µM | XF498 29.6 µM

O=C(/C=C/c1ccccc1)NC1C=Nc2ccc(Cl)cc2NC1=O (configuration not stated)
inactive: DLD-1 20.8 µM | DMS-114 5.66 µM | DMS-273 18.2 µM | HOP-18 20.7 µM | M19-MEL 23 µM | RXF 631 19.5 µM | SNB-78 53.7 µM | XF498 13.3 µM

Cc1ccc(S(=O)(=O)N/N=C/c2oc(-c3cccc([N+](=O)[O-])c3)c(-c3cccc([N+](=O)[O-])c3)c2[N+](=O)[O-])cc1
inactive: DLD-1 32.2 µM | HOP-18 > 100 µM | RXF 631 62.1 µM | XF498 > 100 µM

CC(C)(C)CC(C)(C)c1cc2c(O)c(c1)Cc1cc(C(C)(C)CC(C)(C)C)cc(c1O)Cc1cc(C(C)(C)CC(C)(C)C)cc(c1O)Cc1cc(C(C)(C)CC(C)(C)C)cc(c1O)Cc1cc(C(C)(C)CC(C)(C)C)cc(c1O)Cc1cc(C(C)(C)CC(C)(C)C)cc(c1O)C2
inactive: DLD-1 > 100 µM | DMS-114 > 100 µM | DMS-273 > 100 µM | M19-MEL > 100 µM | RXF 631 > 100 µM | SNB-78 > 100 µM | XF498 > 100 µM
